# Results as given in US8153653B2, “Amido-tropane derivatives” (Hoffmann-La Roche Inc., priority 2010, dated 2012).
# Target: T1, mGlyT-1b (Mus musculus, UniProt P28571)
# T1 construct: host or cells: Flp-in-CHO cells, stably transfected
# T1 sequence (P28571 1-651 isoform P28571-2): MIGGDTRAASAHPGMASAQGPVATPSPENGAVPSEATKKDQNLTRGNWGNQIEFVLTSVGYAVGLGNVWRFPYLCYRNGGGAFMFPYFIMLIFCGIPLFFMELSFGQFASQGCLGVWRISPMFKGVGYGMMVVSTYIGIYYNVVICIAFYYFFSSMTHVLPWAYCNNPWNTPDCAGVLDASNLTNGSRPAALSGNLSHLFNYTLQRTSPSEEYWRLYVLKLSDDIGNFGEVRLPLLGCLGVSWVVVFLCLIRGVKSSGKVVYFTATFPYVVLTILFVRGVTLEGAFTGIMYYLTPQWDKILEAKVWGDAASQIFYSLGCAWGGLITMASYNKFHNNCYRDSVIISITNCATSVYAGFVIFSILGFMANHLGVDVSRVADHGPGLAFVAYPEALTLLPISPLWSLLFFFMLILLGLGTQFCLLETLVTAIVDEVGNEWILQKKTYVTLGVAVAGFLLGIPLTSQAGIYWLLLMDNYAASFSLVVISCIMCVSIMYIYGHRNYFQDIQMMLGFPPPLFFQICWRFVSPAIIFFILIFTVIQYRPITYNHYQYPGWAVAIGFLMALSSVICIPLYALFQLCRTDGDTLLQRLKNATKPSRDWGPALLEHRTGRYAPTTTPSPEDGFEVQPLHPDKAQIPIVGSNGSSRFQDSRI
# Assay: Glycine Uptake Inhibition Assay (mGlyT-1b)
# Type: cell-based
# Conditions: [3H]-glycine uptake in Flp-in-CHO cells stably transfected with mGlyT-1b cDNA; 20 min preincubation at 22° C.
# Method: DMEM complete medium: Nutrient mixture F-12 (Gibco Life-technologies), fetal bovine serum (FBS) 5%, (Gibco life technologies), Penicillin/Streptomycin 1% (Gibco life technologies), Hygromycin 0.6 mg/ml (Gibco life technologies), Glutamine 1 mM Gibco life technologies) Uptake buffer (UB): 150 mM NaCl, 10 mM Hepes-Tris, pH 7.4, 1 mM CaCl2, 2.5 mM KCl, 2.5 mM MgSO4, 10 mM (+) D-glucose. Flp-in™-CHO (Invitrogen Cat n° R758-07) cells stably transfected with mGlyT1b cDNA.
# Glycine Uptake Inhibition Assay (mGlyT-1b)
# On day 1 mammalian cells, (Flp-in™-CHO), transfected with mGlyT-1b cDNA, were plated at the density of 40,000 cells/well in complete F-12 medium, without hygromycin in 96-well culture plates. On day 2, the medium was aspirated and the cells were washed twice with uptake buffer (UB). The cells were then incubated for 20 min at 22° C. with either (i) no potential competitor, (ii) 10 mM non-radioactive glycine, (iii) a concentration of a potential inhibitor. A range of concentrations of the potential inhibitor was used to generate data for calculating the concentration of inhibitor resulting in 50% of the effect (e.g. IC50, the concentration of the competitor inhibiting glycine uptake of 50%). A solution was then immediately added containing [^3H]-glycine 60 nM (11-16 Ci/mmol) and 25 μM non-radioactive glycine. The plates were incubated with gentle shaking and the reaction was stopped by aspiration of the mixture and washing (three times) with ice-cold UB. The cells were lysed with scintillation liquid, shaken 3 hours and the radioactivity in the cells was counted using a scintillation counter.
smiles,measurement,value
"COc1cc(C(F)(F)F)cc(SC)c1C(=O)N[C@@]1(c2ccccc2)CC[C@@H]2CC[C@H]1N2C (racemic) [Example 1, 2-Methoxy-N-((1RS,2RS,5SR)-8-methyl-2-phenyl-8-aza-bicyclo[3.2.1]oct-2-yl)-6-methylsulfanyl-4-trifluoromethyl-benzamide]",IC50,14 nM
"COc1cc(C(F)(F)F)cc(SC)c1C(=O)N[C@@]1(c2ccccc2)CC[C@@H]2CC[C@H]1N2C (racemic) [Example 3, 2-Methoxy-N-((1R,2R,5S)-8-methyl-2-phenyl-8-aza-bicyclo[3.2.1]oct-2-yl)-6-methylsulfanyl-4-trifluoromethyl-benzamide]",IC50,8 nM
"CN1[C@H]2CC[C@@H]1[C@](NC(=O)c1ccc(C(F)(F)F)cc1C1CC1)(c1ccccc1)CC2 (racemic) [Example 4, 2-Cyclopropyl-N-((1RS,2RS,5SR)-8-methyl-2-phenyl-8-aza-bicyclo[3.2.1]oct-2-yl)-4-trifluoromethyl-benzamide]",IC50,8 nM
"CCc1cc(C(F)(F)F)cc(OC)c1C(=O)N[C@@]1(c2ccccc2)CC[C@@H]2CC[C@H]1N2C (racemic) [Example 13, 2-Ethyl-6-methoxy-N-((1RS,2RS,5SR)-8-methyl-2-phenyl-8-aza-bicyclo[3.2.1]oct-2-yl)-4-trifluoromethyl-benzamide]",IC50,14 nM
"CCc1cc(C(F)(F)F)ccc1C(=O)N[C@]1(c2ccccc2)CC[C@H]2CC[C@@H]1N2C (stereo in doubt) [Example 5, 2-Ethyl-N-((1S,2S,5R) or (1R,2R,5S)-8-methyl-2-phenyl-8-aza-bicyclo[3.2.1]oct-2-yl)-4-trifluoromethyl-benzamide]",IC50,19 nM
"CCc1cc(C(F)(F)F)ccc1C(=O)N[C@@]1(c2ccccc2)CC[C@@H]2CC[C@H]1N2C (stereo in doubt) [Example 6, 2-Ethyl-N-((1R,2R,5S) or (1S,2S,5R)-8-methyl-2-phenyl-8-aza-bicyclo[3.2.1]oct-2-yl)-4-trifluoromethyl-benzamide]",IC50,31 nM
"COc1cc(C(F)(F)F)cc(C)c1C(=O)N[C@@]1(c2ccccc2)CC[C@@H]2CC[C@H]1N2C (stereo in doubt) [Example 7, 2-Methoxy-6-methyl-N-((1RS,2RS,5SR)-8-methyl-2-phenyl-8-aza-bicyclo[3.2.1]oct-2-yl)-4-trifluoromethyl-benzamide]",IC50,6 nM
"COc1cc(C(F)(F)F)cc(C)c1C(=O)N[C@]1(c2ccccc2)CC[C@H]2CC[C@@H]1N2C (stereo in doubt) [Example 8, 2-Methoxy-6-methyl-N-((1S,2S,5R) or (1R,2R,5S)-8-methyl-2-phenyl-8-aza-bicyclo[3.2.1]oct-2-yl)-4-trifluoromethyl-benzamide]",IC50,20 nM
"COc1cc(C(F)(F)F)cc(C)c1C(=O)N[C@@]1(c2ccccc2)CC[C@@H]2CC[C@H]1N2C (stereo in doubt) [Example 9, 2-Methoxy-6-methyl-N-((1R,2R,5S) or (1S,2S,5R)-8-methyl-2-phenyl-8-aza-bicyclo[3.2.1]oct-2-yl)-4-trifluoromethyl-benzamide]",IC50,20 nM
"COc1cc(C(F)(F)F)cc(C2CC2)c1C(=O)N[C@@]1(c2ccccc2)CC[C@@H]2CC[C@H]1N2C (stereo in doubt) [Example 10, 2-Cyclopropyl-6-methoxy-N-((1RS,2RS,5SR)-8-methyl-2-phenyl-8-aza-bicyclo[3.2.1]oct-2-yl)-4-trifluoromethyl-benzamide]",IC50,4 nM
"COc1cc(C(F)(F)F)cc(C2CC2)c1C(=O)N[C@]1(c2ccccc2)CC[C@H]2CC[C@@H]1N2C (stereo in doubt) [Example 11, 2-Cyclopropyl-6-methoxy-N-((1S,2S,5R) or (lR,2R.5S)-8-methyl-2-phenyl-8-aza-bicyclo[3.2.1]oct-2-yl)-4-trifluoromethyl-benzamide]",IC50,6 nM
"COc1cc(C(F)(F)F)cc(C2CC2)c1C(=O)N[C@@]1(c2ccccc2)CC[C@@H]2CC[C@H]1N2C (stereo in doubt) [Example 12, 2-Cyclopropyl-6-methoxy-N-((1R,2R,5S) or (1S,2S,5R)-8-methyl-2-phenyl-8-aza-bicyclo[3.2.1]oct-2-yl)-4-trifluoromethyl-benzamide]",IC50,6 nM
"COc1cc(C(F)(F)F)cc(SC)c1C(=O)N[C@]1(c2ccccc2)CC[C@H]2CC[C@@H]1N2C [Example 2, 2-Methoxy-N-((1S,2S,5R)-8-methyl-2-phenyl-8-aza-bicyclo[3.2.l]oct-2-yl)-6-methylsulfanyl-4-trifluoromethyl-benzamide]",IC50,21 nM
